We go through four molecules from paper PMC6008493, “Thioamide substitution to probe the hydroxyproline recognition of VHL ligands” (Bioorganic & Medicinal Chemistry, 2018).

Read-outs that look alike come from different tables or passages of the source. Bounds are passed on as bounds.

Data set [1] is described as follows: Quantification of ligand trans and cis isomers in solution by NMR. Type of data set: physicochemical. Particulars: free ligand in solution. An excerpt:
We next evaluated the impact of thioamide substitutions to the n → π^∗ interaction in the ligand free state in solution. This interaction is only possible when the Hyp (thio)amide group is in the trans isomer conformation (Fig. 1A). Thus, the ratio between the trans and cis isomers at equilibrium can be used to infer the strength of the n → π^∗ interaction.[13]
Quantification of ligands trans and cis isomers in solution.

The target in data set [2] is T1, VBC protein (VHL, elongin B, elongin C) (Homo sapiens, UniProt P40337).
T1 construct: made in house
The data set is described as follows: Competitive fluorescence polarization (FP) binding assay displacing FAM-labelled HIF-1α peptide. On the procedure: Control wells contained VBC and peptide in the absence of compound (maximum signal), and peptide in the absence of protein (background signal). Data were obtained in triplicate and the percentage of displacement was determined and graphed against log[VHL inhibitors]. Average IC50 values and the standard error of the mean (SEM) were determined for each titration using Prism 6. Dissociation constants Kd were back-calculated from the measured IC50 values using a displacement binding model, as described previously.^6
For orientation: Fluorescence polarisation rises when a labelled molecule tumbles more slowly, as on binding a larger partner.

Data set [3] deals with VBC complex (VHL, elongin B, elongin C) (Homo sapiens, UniProt P40337). Description: Isothermal titration calorimetry (ITC) direct titration. The note with it: for ΔH: ITC enthalpy of binding; for ΔH / Kd: 25°C; for Kd: read-out: Kd ITC, pH 7, 3% DMSO. (Isothermal titration calorimetry measures the heat released or taken up as one component is titrated into another.)
Setting [4] is: back-calculated from measured IC50, 15 nM VBC, 10 nM FAM-HIF-1α peptide, pH 7, read-out: Kd FP.
The mark [5] stands for this setting: relative to unmodified ligand 1.

Consider `CC(=O)N[C@@H](C)C(=O)N1C[C@H](O)C[C@H]1C(=O)NCc1ccc(-c2scnc2C)cc1` [compound 1], for which, in data set [1], the “trans:cis (%) - cis isomer” value is reported as 8% and the “trans:cis (%) - trans isomer” value turned out to be 92%.

As usually defined, the Kd is the equilibrium constant for the complex coming apart. For the molecule `CC(=O)N[C@@H](C)C(=S)N1C[C@H](O)C[C@H]1C(=S)NCc1ccc(-c2scnc2C)cc1` [compound 4, N-((S)-1-((2S,4R)-4-hydroxy-2-((4-(4-methylthiazol-5-yl)benzyl)carbamothioyl)pyrrolidin-1-yl)-1-thioxopropan-2-yl)acetamide], the Kd in data set [2] (setting [4]) was > 13 µM. For the same molecule, in data set [2] (text summary of FP and ITC, read-out: Kd), the Kd was > 10 µM. In data set [1], the “trans:cis (%) - cis isomer” value stood at 10% and the “trans:cis (%) - trans isomer” value came out at 90%. In data set [3], the ΔH was -10.7 ± 0.042 kJ/mol and the Kd is 21.6 ± 0.8 µM.

Turning to `CC(=O)N[C@@H](C)C(=O)N1C[C@H](O)C[C@H]1C(=S)NCc1ccc(-c2scnc2C)cc1` [compound 2, N-((S)-1-((2S,4R)-4-Hydroxy-2-((4-(4-methylthiazol-5-yl)benzyl)carbamothioyl)pyrrolidin-1-yl)-1-oxopropan-2-yl)acetamide], in data set [1], the “trans:cis (%) - cis isomer” value is recorded as 11% and the “trans:cis (%) - trans isomer” value is given as 89%.

Turning to `CC(=O)N[C@@H](C)C(=S)N1C[C@H](O)C[C@H]1C(=O)NCc1ccc(-c2scnc2C)cc1` [compound 3, (2S,4R)-1-((S)-2-Acetamidopropanethioyl)-4-hydroxy-N-(4-(4-methylthiazol-5-yl)benzyl)pyrrolidine-2-carboxamide], in data set [2] (setting [4]), the equilibrium dissociation constant (Kd) was 1 ± 0.4 µM. Besides, in data set [2] (setting [5]), the “loss in binding affinity by FP” value is “twofold”. Further, in data set [1], the “trans:cis (%) - cis isomer” value worked out at 6% and the “trans:cis (%) - trans isomer” value came out at 94%. Further, in data set [3], the ΔH was -28.4 ± 0.042 kJ/mol and the Kd was 0.76 ± 0.02 µM. Further, the “loss in binding affinity by ITC” value in data set [3] (setting [5]) was “twofold”.
